Results as given in ChEMBL document CHEMBL4359862, “Cinnamamide: An insight into the pharmacological advances and structure-activity relationships” (Eur J Med Chem, 2019).
Values after ≈ are worked out from the molar mass of the structure shown.

Tests used:
[1] = tested on: MGC-803; experiment: Antiproliferative activity against human MGC803 cells; format: functional, cell-based
[2] = tested on: MCF7; experiment: Antiproliferative activity against human MCF7 cells assessed as reduction in cell viability incubated for 48 hrs by MTT assay; format: functional, cell-based; settings: MCF7, 48 h
[3] = target: T1, Tyrosinase (Agaricus bisporus) (UniProt O42713); experiment: Inhibition of mushroom tyrosinase at 25 uM using L-tyrosine as substrate incubated for 30 mins relative to control
T1 sequence (whole entry): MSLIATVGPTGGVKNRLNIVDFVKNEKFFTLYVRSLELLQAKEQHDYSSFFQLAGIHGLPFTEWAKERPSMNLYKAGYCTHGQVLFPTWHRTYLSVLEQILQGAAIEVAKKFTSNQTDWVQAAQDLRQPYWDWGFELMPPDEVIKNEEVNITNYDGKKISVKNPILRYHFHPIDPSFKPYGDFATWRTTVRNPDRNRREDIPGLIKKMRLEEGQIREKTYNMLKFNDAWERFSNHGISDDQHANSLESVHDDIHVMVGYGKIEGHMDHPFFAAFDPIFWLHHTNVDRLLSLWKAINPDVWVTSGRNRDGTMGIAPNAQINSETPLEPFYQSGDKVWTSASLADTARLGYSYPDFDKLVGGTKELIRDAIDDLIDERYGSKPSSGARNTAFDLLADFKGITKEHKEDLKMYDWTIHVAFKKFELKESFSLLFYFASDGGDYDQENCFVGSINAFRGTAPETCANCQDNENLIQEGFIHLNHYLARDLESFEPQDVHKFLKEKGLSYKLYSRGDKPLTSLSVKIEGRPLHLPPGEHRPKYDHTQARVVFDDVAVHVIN

[4] = tested on: Candida albicans; experiment: Antifungal activity against Candida albicans assessed as reduction in fungal cell growth incubated for 48 hrs by serial dilution assay; format: functional
[5] = tested on: Escherichia coli; experiment: Antibacterial activity against Escherichia coli assessed as reduction in bacterial cell viability incubated for 24 hrs by serial dilution assay; format: functional
[6] = target: Beta-secretase 1 (Homo sapiens, UniProt P56817); experiment: Inhibition of recombinant human BACE 1 using Rh-EVNL-DAEFK-Quencher as substrate incubated for 60 mins by fluorescence based assay
[7] = target: T2, Amine oxidase [flavin-containing] B (Homo sapiens, UniProt P27338); experiment: Inhibition of recombinant human MAOB using kynuramine as substrate preincubated with substrate for 10 mins followed by enzyme addition and measured after 20 mins by fluorescence spectrophotometry
T2 sequence (P27338 whole entry): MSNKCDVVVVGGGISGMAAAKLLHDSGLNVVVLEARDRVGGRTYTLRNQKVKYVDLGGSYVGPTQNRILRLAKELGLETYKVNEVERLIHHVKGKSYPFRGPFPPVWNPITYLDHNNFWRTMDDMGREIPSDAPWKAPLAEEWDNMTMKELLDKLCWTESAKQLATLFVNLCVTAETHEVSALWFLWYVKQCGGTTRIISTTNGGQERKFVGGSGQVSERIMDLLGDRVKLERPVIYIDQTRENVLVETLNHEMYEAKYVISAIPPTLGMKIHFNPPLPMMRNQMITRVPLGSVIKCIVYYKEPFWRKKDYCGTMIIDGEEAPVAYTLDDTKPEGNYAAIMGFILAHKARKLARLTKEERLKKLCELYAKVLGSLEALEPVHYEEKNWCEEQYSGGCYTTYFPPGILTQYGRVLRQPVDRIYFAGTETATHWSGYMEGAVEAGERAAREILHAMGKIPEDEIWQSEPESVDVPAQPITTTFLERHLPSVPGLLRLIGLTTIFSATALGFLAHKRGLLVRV

[8] = tested on: DU-145; experiment: Antiproliferative activity against human DU145 cells assessed as reduction in cell viability incubated for 48 hrs by MTT assay; format: functional, cell-based; settings: DU-145, 48 h
[9] = target: T3, B2 bradykinin receptor (Cavia porcellus, UniProt O70526); experiment: Displacement of [3H]BK from Bradykinin B2 Receptor in guinea pig ileum by liquid scintillation counter; format: tissue-based
T3 sequence (O70526 whole entry): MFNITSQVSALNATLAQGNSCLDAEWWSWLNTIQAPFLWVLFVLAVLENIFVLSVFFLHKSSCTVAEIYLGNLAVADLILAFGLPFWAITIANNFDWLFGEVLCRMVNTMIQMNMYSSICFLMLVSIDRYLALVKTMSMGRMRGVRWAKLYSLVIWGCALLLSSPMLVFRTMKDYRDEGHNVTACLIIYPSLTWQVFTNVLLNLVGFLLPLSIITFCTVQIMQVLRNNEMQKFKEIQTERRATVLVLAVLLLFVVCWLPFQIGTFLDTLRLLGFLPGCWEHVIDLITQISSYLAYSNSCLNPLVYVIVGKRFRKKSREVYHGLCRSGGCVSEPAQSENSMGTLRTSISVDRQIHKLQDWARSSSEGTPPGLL

[10] = Inhibition of recombinant LFA1/ICAM1 (unknown origin) interaction incubated for 1 hr by time resolved fluorimetry; design: species or system Homo sapiens
[11] = target: T4, P-selectin (Homo sapiens, UniProt P16109); experiment: Inhibition of P-selectin (unknown origin) incubated for 30 mins by ELISA
T4 sequence (P16109 whole entry): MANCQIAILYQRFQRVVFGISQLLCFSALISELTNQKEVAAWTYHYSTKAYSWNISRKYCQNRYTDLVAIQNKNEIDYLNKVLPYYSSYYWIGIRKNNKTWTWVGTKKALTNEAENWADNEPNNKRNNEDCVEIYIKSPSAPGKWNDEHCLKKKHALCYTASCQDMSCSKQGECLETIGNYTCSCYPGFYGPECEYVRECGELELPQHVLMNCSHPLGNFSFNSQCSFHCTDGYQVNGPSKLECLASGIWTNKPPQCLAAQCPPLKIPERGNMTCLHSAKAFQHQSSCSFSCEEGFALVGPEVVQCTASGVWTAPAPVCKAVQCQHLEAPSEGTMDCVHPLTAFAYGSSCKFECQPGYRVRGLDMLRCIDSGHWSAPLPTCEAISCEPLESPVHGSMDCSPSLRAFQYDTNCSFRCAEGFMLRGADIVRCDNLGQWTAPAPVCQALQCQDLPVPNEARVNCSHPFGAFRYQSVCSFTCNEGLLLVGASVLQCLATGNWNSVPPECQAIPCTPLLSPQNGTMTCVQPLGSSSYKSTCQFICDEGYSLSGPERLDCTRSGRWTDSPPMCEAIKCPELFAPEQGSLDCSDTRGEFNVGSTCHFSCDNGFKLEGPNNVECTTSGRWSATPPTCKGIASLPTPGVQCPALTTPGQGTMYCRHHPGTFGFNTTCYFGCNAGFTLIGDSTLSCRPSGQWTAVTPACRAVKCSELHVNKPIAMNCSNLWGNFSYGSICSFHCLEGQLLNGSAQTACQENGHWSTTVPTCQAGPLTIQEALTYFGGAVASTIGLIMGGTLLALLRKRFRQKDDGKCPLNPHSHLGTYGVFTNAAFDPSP

[12] = tested on: HeLa S3; experiment: Antiproliferative activity against human HeLaS3 cells assessed as reduction in cell viability incubated for 72 hrs by cell counter method; format: functional, cell-based; settings: HeLa S3, 72 h
[13] = tested on: DU-145; experiment: Antiproliferative activity against human DU145 cells; format: functional, cell-based
[14] = Inhibition of recombinant LFA1/ICAM1 (unknown origin) interaction in JY-8 cells expressing LFA1 incubated for 45 mins by fluorescence based assay; format: cell-based, Homo sapiens
[15] = tested on: Escherichia coli; experiment: Antibacterial activity against Escherichia coli assessed as reduction in bacterial cell viability by well plate method; format: functional
[16] = tested on: Bacillus subtilis; experiment: Antibacterial activity against Bacillus subtilis assessed as reduction in bacterial cell viability by well plate method; format: functional
[17] = target: Telomerase reverse transcriptase (Homo sapiens, UniProt O14746); experiment: Inhibition of telomerase (unknown origin)
[18] = tested on: HT-29; experiment: Antiproliferative activity against human HT-29 cells assessed as reduction in cell viability by MTT assay; format: functional, cell-based
[19] = tested on: P388; experiment: Antiproliferative activity against mouse P388 cells assessed as reduction in cell viability by MTT assay; format: functional, cell-based
[20] = tested on: Staphylococcus aureus; experiment: Antibacterial activity against Staphylococcus aureus ATCC 6538 assessed as reduction in bacterial cell viability incubated for 24 hrs by broth microdilution assay; format: functional, organism-based; settings: ATCC 6538, 24 h
[21] = target: Epidermal growth factor receptor (Homo sapiens, UniProt P00533); experiment: Inhibition of EGFR (unknown origin)
[22] = target: Vascular endothelial growth factor receptor 2 (Homo sapiens, UniProt P35968); experiment: Inhibition of VEGFR (unknown origin)
[23] = Inhibition of LFA1/ICAM1 (unknown origin) interaction; design: species or system Homo sapiens
[24] = tested on: U-937; experiment: Cell cycle arrest in human U937 cells assessed as increase in accumulation in G2 phase incubated for 6 hrs by propidium iodide staining based flow cytometry; format: functional; settings: U-937, 6 h
[25] = Antioxidant activity assessed as DPPH free radical scavenging activity by spectrophotometry; format: functional

Chain of Epidermal growth factor receptor (P00533 whole entry): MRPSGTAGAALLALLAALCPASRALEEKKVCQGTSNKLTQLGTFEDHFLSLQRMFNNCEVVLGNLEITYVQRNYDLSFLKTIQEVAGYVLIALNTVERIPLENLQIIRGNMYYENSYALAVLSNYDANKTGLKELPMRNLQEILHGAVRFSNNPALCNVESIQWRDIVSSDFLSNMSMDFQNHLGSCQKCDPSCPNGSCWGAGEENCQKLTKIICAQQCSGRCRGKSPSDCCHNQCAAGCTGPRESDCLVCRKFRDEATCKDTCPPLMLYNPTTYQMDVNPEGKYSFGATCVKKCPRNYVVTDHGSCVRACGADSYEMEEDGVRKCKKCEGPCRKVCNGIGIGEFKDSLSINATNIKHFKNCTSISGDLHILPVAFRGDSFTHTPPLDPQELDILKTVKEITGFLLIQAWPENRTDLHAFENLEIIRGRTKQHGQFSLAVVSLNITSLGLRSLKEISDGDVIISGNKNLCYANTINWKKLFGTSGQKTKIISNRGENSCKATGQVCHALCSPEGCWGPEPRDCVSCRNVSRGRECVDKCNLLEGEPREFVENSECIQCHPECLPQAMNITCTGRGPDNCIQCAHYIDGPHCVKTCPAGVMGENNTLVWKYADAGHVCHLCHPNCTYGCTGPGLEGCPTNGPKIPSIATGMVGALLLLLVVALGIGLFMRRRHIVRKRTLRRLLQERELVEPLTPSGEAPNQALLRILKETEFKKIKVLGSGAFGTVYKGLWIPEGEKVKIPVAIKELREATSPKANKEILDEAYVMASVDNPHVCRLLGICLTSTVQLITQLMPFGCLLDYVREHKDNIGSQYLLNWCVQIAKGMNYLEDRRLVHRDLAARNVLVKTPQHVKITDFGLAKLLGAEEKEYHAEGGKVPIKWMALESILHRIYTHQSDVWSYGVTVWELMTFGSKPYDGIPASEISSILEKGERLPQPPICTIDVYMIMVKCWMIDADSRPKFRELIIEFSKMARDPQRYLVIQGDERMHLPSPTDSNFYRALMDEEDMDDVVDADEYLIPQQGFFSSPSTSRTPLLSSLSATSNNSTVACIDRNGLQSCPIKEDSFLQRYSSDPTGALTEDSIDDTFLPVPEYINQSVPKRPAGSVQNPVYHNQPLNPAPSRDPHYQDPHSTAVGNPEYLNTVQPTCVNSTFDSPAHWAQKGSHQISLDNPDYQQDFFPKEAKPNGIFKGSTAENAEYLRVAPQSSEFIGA
Chain of Vascular endothelial growth factor receptor 2 (P35968 whole entry): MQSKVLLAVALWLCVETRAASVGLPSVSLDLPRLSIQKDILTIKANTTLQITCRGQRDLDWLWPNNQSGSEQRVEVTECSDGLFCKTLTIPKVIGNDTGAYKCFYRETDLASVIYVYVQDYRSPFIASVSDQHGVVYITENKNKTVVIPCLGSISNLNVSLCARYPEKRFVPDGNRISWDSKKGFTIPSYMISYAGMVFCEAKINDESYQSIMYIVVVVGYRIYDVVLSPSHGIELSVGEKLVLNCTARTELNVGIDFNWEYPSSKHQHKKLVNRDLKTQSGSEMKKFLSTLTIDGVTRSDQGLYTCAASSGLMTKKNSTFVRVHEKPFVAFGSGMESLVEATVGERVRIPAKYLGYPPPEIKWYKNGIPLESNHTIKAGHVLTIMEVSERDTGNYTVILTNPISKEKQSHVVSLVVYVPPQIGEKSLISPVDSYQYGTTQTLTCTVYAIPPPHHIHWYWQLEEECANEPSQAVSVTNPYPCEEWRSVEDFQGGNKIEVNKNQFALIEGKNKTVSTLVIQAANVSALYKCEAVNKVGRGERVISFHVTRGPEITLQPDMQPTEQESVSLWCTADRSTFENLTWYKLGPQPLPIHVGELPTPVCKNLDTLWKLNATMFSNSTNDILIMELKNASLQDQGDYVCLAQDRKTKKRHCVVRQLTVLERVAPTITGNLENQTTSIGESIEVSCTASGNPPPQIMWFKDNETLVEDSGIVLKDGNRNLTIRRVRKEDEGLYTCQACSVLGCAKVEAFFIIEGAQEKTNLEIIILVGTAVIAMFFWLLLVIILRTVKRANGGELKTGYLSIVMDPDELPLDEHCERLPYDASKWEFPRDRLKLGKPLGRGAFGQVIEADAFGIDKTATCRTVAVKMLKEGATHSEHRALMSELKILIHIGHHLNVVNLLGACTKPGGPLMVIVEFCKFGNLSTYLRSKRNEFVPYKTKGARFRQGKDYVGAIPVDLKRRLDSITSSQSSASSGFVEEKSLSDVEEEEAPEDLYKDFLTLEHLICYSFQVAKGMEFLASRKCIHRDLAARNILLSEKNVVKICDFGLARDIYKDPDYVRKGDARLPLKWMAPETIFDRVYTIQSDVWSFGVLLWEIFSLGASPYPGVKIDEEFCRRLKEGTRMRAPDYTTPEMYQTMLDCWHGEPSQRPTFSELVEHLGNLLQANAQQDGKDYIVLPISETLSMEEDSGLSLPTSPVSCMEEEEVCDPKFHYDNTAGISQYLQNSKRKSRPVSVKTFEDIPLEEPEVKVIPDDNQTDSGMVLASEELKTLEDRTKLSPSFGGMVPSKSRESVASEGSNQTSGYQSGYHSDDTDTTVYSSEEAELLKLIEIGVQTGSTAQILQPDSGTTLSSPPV
Chain of Telomerase reverse transcriptase (O14746 whole entry): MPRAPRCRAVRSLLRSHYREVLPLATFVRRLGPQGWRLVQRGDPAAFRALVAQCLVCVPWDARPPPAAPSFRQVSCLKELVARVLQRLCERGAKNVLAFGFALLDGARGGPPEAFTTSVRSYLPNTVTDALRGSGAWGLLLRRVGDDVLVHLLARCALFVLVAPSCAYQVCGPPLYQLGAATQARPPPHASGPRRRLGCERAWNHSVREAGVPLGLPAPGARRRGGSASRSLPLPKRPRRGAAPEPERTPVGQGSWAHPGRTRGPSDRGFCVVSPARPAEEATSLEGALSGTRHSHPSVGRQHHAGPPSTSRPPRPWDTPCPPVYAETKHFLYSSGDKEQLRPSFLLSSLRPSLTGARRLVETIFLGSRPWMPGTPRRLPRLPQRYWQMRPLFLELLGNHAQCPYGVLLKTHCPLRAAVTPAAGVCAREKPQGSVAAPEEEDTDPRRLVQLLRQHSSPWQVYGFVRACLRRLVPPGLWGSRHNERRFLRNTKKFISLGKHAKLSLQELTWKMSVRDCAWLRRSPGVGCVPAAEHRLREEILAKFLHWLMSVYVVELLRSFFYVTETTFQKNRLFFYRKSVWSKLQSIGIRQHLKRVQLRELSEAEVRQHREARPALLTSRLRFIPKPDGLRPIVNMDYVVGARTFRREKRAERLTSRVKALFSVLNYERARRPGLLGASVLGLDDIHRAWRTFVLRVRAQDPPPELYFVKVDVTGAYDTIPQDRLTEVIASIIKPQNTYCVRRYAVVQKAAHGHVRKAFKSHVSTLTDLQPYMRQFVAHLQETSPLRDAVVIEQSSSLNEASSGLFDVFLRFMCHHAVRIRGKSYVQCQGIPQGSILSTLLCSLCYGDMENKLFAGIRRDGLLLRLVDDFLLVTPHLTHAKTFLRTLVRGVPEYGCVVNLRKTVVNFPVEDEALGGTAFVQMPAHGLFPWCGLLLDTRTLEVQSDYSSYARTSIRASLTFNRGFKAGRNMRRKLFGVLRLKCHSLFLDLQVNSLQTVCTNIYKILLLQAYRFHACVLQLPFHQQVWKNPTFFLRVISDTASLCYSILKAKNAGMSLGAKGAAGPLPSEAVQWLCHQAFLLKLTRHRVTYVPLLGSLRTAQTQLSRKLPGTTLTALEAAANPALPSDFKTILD
Chain of Beta-secretase 1 (P56817 whole entry): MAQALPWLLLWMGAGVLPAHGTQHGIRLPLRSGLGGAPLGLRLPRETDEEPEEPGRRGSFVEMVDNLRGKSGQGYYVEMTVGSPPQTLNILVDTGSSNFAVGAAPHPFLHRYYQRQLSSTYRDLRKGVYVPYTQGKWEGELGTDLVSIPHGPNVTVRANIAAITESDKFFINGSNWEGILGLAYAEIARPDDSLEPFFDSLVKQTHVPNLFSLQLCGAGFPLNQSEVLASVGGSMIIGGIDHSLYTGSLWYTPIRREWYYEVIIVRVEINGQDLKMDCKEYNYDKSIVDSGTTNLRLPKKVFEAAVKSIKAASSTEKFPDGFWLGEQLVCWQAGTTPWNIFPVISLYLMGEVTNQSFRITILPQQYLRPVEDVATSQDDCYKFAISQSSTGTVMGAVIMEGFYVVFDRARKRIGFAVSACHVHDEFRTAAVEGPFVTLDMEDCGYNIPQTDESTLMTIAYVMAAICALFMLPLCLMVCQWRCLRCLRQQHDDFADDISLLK

## CCCc1n[nH]c(C(N)=O)c1NC(=O)/C=C/c1cc(OC)c(OC)c(OC)c1
[1]
  IC50: 4240 nM

## CC(C)(C)NC(=O)/C=C/c1ccccc1 [N-TERT-BUTYLCINNAMAMIDE]
[2]
  IC50: 13400 nM

## O=C(/C=C/c1ccc(O)cc1O)Nc1ccccc1
[3]
  inhibition: 93.7%

## O=C(/C=C/c1ccccc1)N1CCCCC1
[4]
  log(1/MIC): 2.43
[5]
  log(1/MIC): 2.43

## O=C(/C=C/c1ccccc1)NCCc1cc2cc(O)ccc2[nH]1
[6]
  IC50: 86700 nM

## O=C(/C=C/c1ccc(O)cc1)NCCc1c[nH]c2ccc(O)cc12 [N-P-COUMAROYL SEROTONIN]
[7]
  EC50: 1200 nM

## C=CCOc1cc(/C=C/C(=O)Nc2cc(OC)c(OC)c(OC)c2)ccc1N/C=C\C(=O)c1ccc(OC)c([N+](=O)[O-])c1
[8]
  IC50: 8910 nM

## CNC(=O)c1ccc(/C=C/C(=O)NCC(=O)N(C)c2ccc(Cl)c(COc3cccc4ccc(C)nc34)c2Cl)cn1
[9]
  IC50: 0.46 nM

## CC(=O)N1CCN(C(=O)/C=C/c2ccc(Sc3ccc(Cl)cc3Cl)c([N+](=O)[O-])c2)CC1
[10]
  IC50: 90 nM

## CCCCCCCCCCCCCCCCNC(=O)/C=C/c1ccc(-c2[nH]c(-c3ccc(C4=NOC(C(=O)O)C4)cc3)nc2-c2ccc(/C=C/C(=O)O)cc2)cc1 (stereo unspecified)
[11]
  IC50: 300 nM

## CN(C)C(=O)/C=C/c1ccccc1
[4]
  log(1/MIC): 2.43
[5]
  log(1/MIC): 2.43

## COc1ccc(/C=C/C(=O)N2C[C@H]3C[C@@]34C2=CC(=O)c2[nH]c(C)c(Cl)c24)cc1
[12]
  IC50: 0.029 nM

## O=C(/C=C/c1ccc(O)cc1)N1Cc2ccccc2[C@@H](OCc2ccccc2)[C@@H]1CO
[13]
  IC50: 2080 nM

## CCc1ccccc1Sc1ccc(/C=C/C(=O)N2CCN(C(C)=O)CC2)cc1[N+](=O)[O-]
[14]
  IC50: 65 nM

## CCCCCCCCCCCCNC(=O)/C=C/c1ccccc1 [N-DODECYLCINNAMAMIDE]
[2]
  IC50: 11100 nM

## COc1ccc(/C=C/C(=O)N2CCOCC2)c(OC)c1OC
[15]
  MIC: 6.12 µM (≈ 1.88 µg/mL)
[16]
  MIC: 6.12 µM (≈ 1.88 µg/mL)

## CCCc1n[nH]c(C(N)=O)c1NC(=O)/C=C/c1ccco1
[17]
  IC50: 1020 nM
[1]
  IC50: 3010 nM

## COc1cc(/C=C/C(=O)NCCc2cc(OC)c(O)c(OC)c2)ccc1O
[18]
  IC50: 4000 nM
[19]
  IC50: 4000 nM

## C=CCOc1cc(/C=C/C(=O)Nc2cc(OC)c(OC)c(OC)c2)ccc1N/C=C\C(=O)c1cc(N)c(OC)c(OC)c1
[8]
  IC50: 7480 nM

## O=C(/C=C/c1ccc(O)cc1O)N1CCOCC1
[3]
  inhibition: 95.7%

## COc1ccccc1Sc1ccc(/C=C/C(=O)N2CCC(C(=O)O)CC2)c(C(F)(F)F)c1C(F)(F)F
[14]
  IC50: 0.1 nM

## COc1cc(/C=C/C(=O)NNC(=O)c2ccccc2)cc(OC)c1OC
[20]
  IC50: 85200 nM

## O=C(/C=C/c1ccccc1)Nc1ccc([N+](=O)[O-])cc1
[4]
  log(1/MIC): 2.43
[5]
  log(1/MIC): 2.43

## CN1CCN(C(=O)/C=C/c2ccc(O)cc2O)CC1
[3]
  inhibition: 94.4%

## COc1cc(/C=C/C(=O)Nc2cc3c(Nc4ccc(F)c(Cl)c4)ncnc3cc2O[C@@H]2CCOC2)cc(OC)c1OC
[21]
  IC50: 9 nM
[22]
  IC50: 3.6 nM

## O=C(O)C1CCN(C(=O)/C=C/c2ccc(Sc3ccc4c(c3)OCCO4)c(C(F)(F)F)c2C(F)(F)F)CC1
[14]
  IC50: 0.5 nM

## COc1ccc(/C=C/C(=O)N2C[C@H]3C[C@@]34C2=CC(=O)c2[nH]c(C)c(Br)c24)cc1
[12]
  IC50: 0.065 nM

## CC(=O)N1CCN(C(=O)/C=C/c2ccc(Sc3ccccc3C(C)C)c([N+](=O)[O-])c2)CC1 [A-286982]
[10]
  IC50: 35 nM

## O=C(O)C1CCCN(C(=O)/C=C/c2ccc(Sc3ccc4c(c3)OCCO4)c(C(F)(F)F)c2)C1 (stereo unspecified)
[10]
  IC50: 25 nM

## CC(=O)N1CCN(C(=O)/C=C/c2ccc(Sc3ccc4c(c3)OCCO4)c(Cl)c2)CC1
[23]
  IC50: 40 nM

## COc1ccc(/C=C/C(=O)NC23CC4CC(CC(C4)C2)C3)c2ccccc12
[24]
  IC50: 7100 nM

## COc1ccc(/C=C/C(=O)Nc2cc3c(Nc4ccc(F)c(Cl)c4)ncnc3cc2O[C@@H]2CCOC2)cc1
[21]
  IC50: 9 nM
[22]
  IC50: 3.6 nM

## COc1cccc(/C=C/C(=O)Nc2cc(OC)c(OC)c(OC)c2)c1
[24]
  IC50: 8000 nM

## COc1cc(/C=C/C(=O)N2CCOCC2)cc(OC)c1OC
[15]
  MIC: 25 µM (≈ 7.68 µg/mL)
[16]
  MIC: 25 µM (≈ 7.68 µg/mL)

## O=C(/C=C/c1ccc(O)c(O)c1)NCCc1c[nH]c2ccc(O)cc12 [N-CAFFEOYLSEROTONIN]
[25]
  EC50: 8100 nM

## CCCc1n[nH]c(C(N)=O)c1NC(=O)/C=C/c1ccccc1
[1]
  IC50: 3440 nM

## O=C(/C=C/c1ccc(O)cc1O)NC1CCCC1
[3]
  inhibition: 94.1%
